Source: article PMC6302903, “Protein and Chemical Determinants of BL-1249 Action and Selectivity for K2P Channels” (ACS Chemical Neuroscience, 2018)

How the values were obtained:
Type in all cases: cell-based
Conditions in all cases: Xenopus oocytes
[1] = biological target: TREK-1/AAK M2-C (Mus musculus, UniProt O88454+P97438); test: TEVC of chimera TREK-1/AAK M2-C
[2] = biological target: T1, K2P2.1(TREK-1) F185L (Mus musculus, UniProt P97438, F200L); test: TEVC of K2P2.1(TREK-1) mutant F185L
T1 construct: expressed in transfected cells; host or cells: Xenopus laevis oocytes, mRNA injected
Text: (§1) To identify K2P2.1(TREK-1) M2 residues that might participate in the BL-1249 response, we mapped the residues that differ between K2P2.1(TREK-1) and K2P4.1(TRAAK) in the context of the K2P2.1(TREK-1) structure[6] (Figure 5B,C). Two K2P2.1(TREK-1) M2 residues stood out as candidates that could explain the reduction in BL-1249 response when the entire M2 helix was replaced with M2 from K2P4.1(TRAAK). One is at the M2/M4 interface and occurs between Phe172 and Arg297 via a π–cation interaction that would be lost when Phe172 is replaced with the equivalent K2P4.1(TRAAK) residue Met134 (Figure 5C, right inset). […] To assess the importance of these interactions in the context of BL-1249 response, we made the K2P2.1(TREK-1) mutants F172M and F185L and measured their responses to BL-1249 (Figure 5D). […]
(§2) Xenopus laevis oocytes were harvested in accordance with UCSF IACUC protocol AN129690 and digested in calcium-free ND-96 (96 mM NaCl, 2 mM KCl, 3.8 mM MgCl2) immediately following harvest, as previously described.[6],[10] […] Defolliculated stage V–VI oocytes were injected with 0.2–6.0 ng of mRNA in 50 nL, and currents were recorded 24–48 h after injection. mRNA was synthesized from plasmid DNA using mMessage mMachine Kit (T7 promoter, Ambion, Life Technologies) and purified using RNEasy Kit (Qiagen). […]

[3] = biological target: T2, K2P2.1(TREK-1) F172M (Mus musculus, UniProt P97438, F187M); test: TEVC of K2P2.1(TREK-1) mutant F172M
T2 construct: expressed in transfected cells; host or cells: Xenopus laevis oocytes, mRNA injected
Text: as §1, §2

T2 sequence (P97438 1-411 isoform P97438-2 F172M): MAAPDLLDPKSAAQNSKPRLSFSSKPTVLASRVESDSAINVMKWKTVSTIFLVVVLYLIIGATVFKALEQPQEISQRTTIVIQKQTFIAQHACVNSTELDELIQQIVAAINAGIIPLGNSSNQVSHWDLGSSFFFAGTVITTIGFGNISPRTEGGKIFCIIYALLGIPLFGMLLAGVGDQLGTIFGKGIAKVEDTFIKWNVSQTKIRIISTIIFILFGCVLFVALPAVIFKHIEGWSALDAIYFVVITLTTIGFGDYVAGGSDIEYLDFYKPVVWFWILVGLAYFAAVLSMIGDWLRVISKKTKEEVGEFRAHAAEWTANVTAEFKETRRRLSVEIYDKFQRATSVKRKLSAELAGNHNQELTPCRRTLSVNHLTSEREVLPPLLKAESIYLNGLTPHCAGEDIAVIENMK
TREK-1/AAK M2-C, sequence (P97438 16-167): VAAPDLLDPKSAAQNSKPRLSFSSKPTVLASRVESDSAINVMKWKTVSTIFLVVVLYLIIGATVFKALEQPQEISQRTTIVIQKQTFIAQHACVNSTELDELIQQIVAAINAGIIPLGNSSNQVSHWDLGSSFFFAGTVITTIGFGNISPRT
TREK-1/AAK M2-C, sequence (O88454 115-398): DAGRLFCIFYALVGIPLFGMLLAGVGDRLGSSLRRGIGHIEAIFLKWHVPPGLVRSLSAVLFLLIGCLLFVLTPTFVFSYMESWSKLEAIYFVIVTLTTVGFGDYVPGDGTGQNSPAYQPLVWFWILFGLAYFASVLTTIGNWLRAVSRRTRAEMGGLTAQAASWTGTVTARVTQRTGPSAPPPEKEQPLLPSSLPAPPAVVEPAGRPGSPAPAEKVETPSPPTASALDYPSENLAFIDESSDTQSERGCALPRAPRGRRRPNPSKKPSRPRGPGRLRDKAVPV
T1 sequence (P97438 1-411 isoform P97438-2 F185L): as the sequence (P97438 1-411 isoform P97438-2 F172M) above, with M172F, F185L counted along it

EC50 [2] [µM]	EC50 [3] [µM]	Structure (SMILES)	EC50 [1] [µM]
–	–	CS(=O)(=O)Nc1ccc(C(=O)NCc2ccc(Cl)cc2Cl)cc1 [ML335]	> 100
27 ± 5	15 ± 2	c1ccc(-c2nnn[nH]2)c(Nc2cccc3c2CCCC3)c1 [BL-1249, (5,6,7,8-tetrahydro-naphthalen-1-yl)-[2-(1H-tetrazol-5-yl)-phenyl]-amine]	–
